Test results from patent US7820379B2, “Process for high throughput screening of CpG-based immuno-agonist/antagonist” (Coley Pharmaceutical GmbH, priority 2000, dated 2010).

These sequences were tested against T1, murine TLR9 (Mus musculus, UniProt Q9EQU3, L378S/Q579H/T325N/T573A/T867A) (assay: NF-κB-luciferase activation in 293 cells transfected with murine TLR9 (293-mTLR9-luc)). Conditions: CpG-ODN 1668 compared with CpG-ODN 2006.
T1 construct: additional primers were designed for amplification of the complete mouse TLR9 cDNA; expressed in transfected cells
T1 sequence (Q9EQU3 26-1032 T325N/L378S/T573A/Q579H/T867A): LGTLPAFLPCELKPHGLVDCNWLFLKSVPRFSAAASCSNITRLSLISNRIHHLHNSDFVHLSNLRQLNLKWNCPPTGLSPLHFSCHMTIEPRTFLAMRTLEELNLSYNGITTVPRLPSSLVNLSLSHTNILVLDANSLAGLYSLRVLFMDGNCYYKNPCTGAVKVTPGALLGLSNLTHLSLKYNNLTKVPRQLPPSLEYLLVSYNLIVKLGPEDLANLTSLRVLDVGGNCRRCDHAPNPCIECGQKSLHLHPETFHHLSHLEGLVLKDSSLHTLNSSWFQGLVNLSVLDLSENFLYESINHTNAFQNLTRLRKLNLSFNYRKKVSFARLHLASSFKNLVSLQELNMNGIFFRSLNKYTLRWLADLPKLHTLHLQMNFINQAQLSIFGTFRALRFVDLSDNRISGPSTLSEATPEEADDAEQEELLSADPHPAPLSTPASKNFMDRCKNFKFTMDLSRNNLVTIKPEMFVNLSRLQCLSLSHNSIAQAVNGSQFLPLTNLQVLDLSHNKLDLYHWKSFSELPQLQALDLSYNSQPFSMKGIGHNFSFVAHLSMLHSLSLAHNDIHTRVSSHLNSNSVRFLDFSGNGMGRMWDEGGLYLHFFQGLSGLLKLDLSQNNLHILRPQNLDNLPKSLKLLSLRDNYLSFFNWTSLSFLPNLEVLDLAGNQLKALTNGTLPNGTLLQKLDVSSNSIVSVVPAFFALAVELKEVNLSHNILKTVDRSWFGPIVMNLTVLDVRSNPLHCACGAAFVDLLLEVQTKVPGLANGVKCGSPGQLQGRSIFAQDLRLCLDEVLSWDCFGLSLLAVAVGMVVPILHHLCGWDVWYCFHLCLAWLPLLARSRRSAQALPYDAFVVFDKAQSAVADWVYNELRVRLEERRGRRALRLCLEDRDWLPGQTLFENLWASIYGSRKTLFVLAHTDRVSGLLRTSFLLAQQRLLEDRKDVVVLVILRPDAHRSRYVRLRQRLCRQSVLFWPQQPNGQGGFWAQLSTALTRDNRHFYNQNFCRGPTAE
Type: cell-based
Source text: Human fibroblast 293 cells were transiently transfected with mTLR9 and the NF-κB-luc construct (FIG. 2). Similar data was obtained for IL-8 production (not shown). Thus expression of TLR9 (human or mouse) in 293 cells results in a gain of function for CpG-DNA stimulation similar to hTLR4 reconstitution of LPS responses.
To generate stable clones expressing human TLR9, murine TLR9, or either TLR9 with the NF-κB-luc reporter plasmid, 293 cells were transfected in 10 cm plates (2×10^6 cells/plate) with 16 μg of DNA and selected with 0.7 mg/ml G418 (PAA Laboratories GmbH, Cölbe, Germany). The clones were also screened for IL-8 production or NF-κB-luciferase activity after stimulation with ODN. Four different types of clones were generated. • 293-hTLR9-luc: expressing human TLR9 and 6-fold NF-κB-luciferase reporter • 293-mTLR9-luc: expressing murine TLR9 and 6-fold NF-κB-luciferase reporter • 293-hTLR9: expressing human TLR9 • 293-mTLR9: expressing murine TLR9
Similar results were obtained utilizing IL-8 production with the stable clone 293-hTLR9. 293-mTLR9-luc were also stimulated with CpG-ODN (1668, 2 μM; […], SEQ ID NO:84), GpC-ODN (1668-GC, 2 μM; […], SEQ ID NO:85), Me-CpG-ODN (1668 methylated, 2 μM; TCCATGAZGTTCCTGATGCT, Z=5-methylcytidine, SEQ ID NO:207), LPS (100 ng/ml) or media, as measured by monitoring NF-κB activation (FIG. 5). Similar results were obtained utilizing IL-8 production with the stable clone 293-mTLR9. Results are representative of at least two independent experiments. […] These cells can be used for screening of optimal ligands for innate immune responses driven by TLR9 in multiple species.
Because stable TLR9 transfectants mirrored primary cell responsiveness to CpG-DNA (FIGS. 4 and 5), it was hypothesized that stable transfectants could potentially discern species-specific CpG-motifs through TLR9 receptors. Therefore 293-hTLR9-luc (expressing human TLR9 and 6-fold NF-κB-luc reporter), 293-mTLR9-luc (expressing murine TLR9 and 6-fold NF-κB-luc reporter), 293-hTLR9 (expressing human TLR9) and 293-mTLR9 (expressing murine TLR9) clones were tested for CpG-DNA motif responsiveness. […] Depicted are both NF-κB-driven luciferase and IL-8 production as readout. […] After lysis of the cells luciferase can be detected photometrically based on an enzymatic reaction by luciferase which creates photons. IL-8 production was monitored using enzyme-linked immunosorbent assay (ELISA). […] Results shown in FIG. 11 are representative of three independent experiments. Strikingly, CpG-motif sequence specificity was conferred in a species-specific manner by TLR9. Additionally, the half-maximal concentration for either 2006 or 1668 appears nearly the same as those determined on primary cells (compare FIG. 10 and FIG. 11).
Although 2006 and 1668 are discussed in terms of CpG-motif differences, they are very different in several aspects (see Table 5 for comparison). The lengths are different, 24 versus 20 nucleotides, and 2006 has four CG dinucleotides compared to one in 1668. Additional differences are the CG position relative to the 5′ and 3′ ends and also 5′ sequence differences. In order to determine if motif specificity is a quality of the motif and not the global sequence environment, for this experiment several sequences were produced holding these variables constant. As a starting point, the 1668 sequence was modified by converting the central C to T and the distal TG to CG, thereby creating a second CG in the resulting sequence 5000 (SEQ ID NO:130, Table 5). Then point nucleotide changes were made, progressing toward a 2006-like sequence, 5007 (SEQ ID NO:98). The ODN 5002 (SEQ ID NO:132) is most like 1668 with the exception that C's at positions 12 and 19 have been converted to T's. […]
In the case of “TCCATGACGTTCCTGATGCT (listed as DNA, chemistry not fully specified) [ODN 1668]”, the “murine TLR9 signaling response” value is reported as “significantly stronger”.

Same assay, conditions: ODN concentration of half-maximal activation; 293-mTLR9-luc cells, NF-κB-driven luciferase readout, 12 hours; read-out: 293-mTLR9 Kac
For “TCCATGACGTTCCTGATGCT (listed as DNA, chemistry not fully specified) [ODN 1668]”, the EC50 was 70 nM.
For TCGTCGTTTTGTCGTTTTGTCGTT [ODN 2006], the EC50 was > 10000 nM.
“TCCATGACGTTCTTGACGCT (listed as DNA, chemistry not fully specified) [ODN 5000]” gave an EC50 of 82 nM.
For “TCCATGTCGTTTTTGTTGTT (listed as DNA, chemistry not fully specified) [ODN 5006]”, the EC50 was 650 nM.
“TCCATGAGCTTCCTGATGCT (listed as DNA, chemistry not fully specified) [ODN 1668-GC]” was tested, and the EC50 was > 10000 nM.
For “TGCTGCTTTTGTGCTTTTGTGCTT (listed as DNA, chemistry not fully specified) [ODN 2006-GC]”, the EC50 was > 10000 nM.
“TCCATGACGTTCTTGACGTT (listed as DNA, chemistry not fully specified) [ODN 5001]” gave an EC50 of 55 nM.
“TCCATGTCGTTTTTGATGTT (listed as DNA, chemistry not fully specified) [ODN 5005]” was tested, and the EC50 was 2000 nM.
Sequence “TCCATGTCGTTTTTGTCGTT (listed as DNA, chemistry not fully specified) [ODN 5007]” has an EC50 of 1000 nM.
In the case of “TCCATGTCGTTCTTGATGTT (listed as DNA, chemistry not fully specified) [ODN 5004]”, the EC50 is reported as 400 nM.
